SMILES strings stand for the structures. Values after ≈ are worked out from the molar mass of the structure shown.

For series [1], the target named is T1, Carbonic anhydrase 1 (Homo sapiens, UniProt P00915). Nature of the series: Tested for inhibition of human (cloned) isozyme Carbonic anhydrase I.
The target of a further series is T2, Carbonic anhydrase 4 (Bos taurus, UniProt Q95323).
T2 sequence (Q95323 whole entry): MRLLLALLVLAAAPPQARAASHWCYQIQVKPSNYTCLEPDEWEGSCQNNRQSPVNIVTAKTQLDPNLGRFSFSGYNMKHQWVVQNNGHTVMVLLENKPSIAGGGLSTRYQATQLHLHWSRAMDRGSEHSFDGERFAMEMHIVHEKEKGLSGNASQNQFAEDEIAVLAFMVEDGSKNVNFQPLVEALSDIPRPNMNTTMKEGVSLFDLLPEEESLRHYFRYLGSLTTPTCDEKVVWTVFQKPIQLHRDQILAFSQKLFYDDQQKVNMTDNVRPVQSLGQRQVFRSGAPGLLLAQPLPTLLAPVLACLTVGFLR

The target of series [2] is T1, Carbonic anhydrase 1.
Description: Inhibition of human recombinant carbonic anhydrase I (CA1)
Series [3] is filed under the species Oryctolagus cuniculus.
Description: Tested for in vivo IOP-lowering of normotensive albino rabbits after topical administration at the specified interval (60 min) at pH 7
Series [4] is filed under the species Oryctolagus cuniculus. This is another data set of the same source.
Description: Tested for in vivo IOP-lowering of normotensive albino rabbits after topical administration at the specified interval (90 min) at pH 7
The species entered for series [5] is Oryctolagus cuniculus. The source holds these as a separate data set.
Description: Tested for in vivo IOP-lowering of normotensive albino rabbits after topical administration at the specified interval (30 min) at pH 7
Series [6] is filed under the species Oryctolagus cuniculus. The source holds these as a separate data set.
Description: In vitro transcorneal accession rate in rabbit corneal intact epithelium
The species named for series [7] is Oryctolagus cuniculus. The source holds these as a separate data set.
Description: In vitro transcorneal accession rate in rabbit corneal denuded epithelium
Series [8] in a line: Partition coefficient (logD) (chloroform-buffer). Type of series: physicochemical.
The species entered for series [9] is Oryctolagus cuniculus. The source holds these as a separate data set.
Description: Tested for ex vivo distribution in ciliary process after topical administration in albino rabbits (Ocular tissue concentration after 2 hr)
For series [10], the species on record is Oryctolagus cuniculus. This is another data set of the same source.
Description: Tested for ex vivo distribution in aqueous humor after topical administration in albino rabbits (Ocular tissue concentration after 1 hr)
For series [11] the following is noted: octanol/water.
Description: Partition coefficient (logD) (chloroform/buffer)
The species named for series [12] is Oryctolagus cuniculus. This is another data set of the same source.
Description: Tested for ex vivo distribution in cornea after topical administration in albino rabbits (Ocular tissue concentration after 1 hr)
Series [13] is described as follows: Solubility in pH 7.4 Buffer, at 25 Degree C. It is filed as physicochemical.
Series [14] is filed under the species Oryctolagus cuniculus. The source holds these as a separate data set.
Description: Tested for ex vivo distribution in cornea after topical administration in albino rabbits (Ocular tissue concentration after 2 hr)
For series [15], the species on record is Oryctolagus cuniculus. The source holds these as a separate data set.
Description: Tested for ex vivo distribution in aqueous humor after topical administration in albino rabbits (Ocular tissue concentration after 2 hr)
The species named for series [16] is Oryctolagus cuniculus. The source holds these as a separate data set.
Description: Tested for ex vivo distribution in ciliary process after topical administration in albino rabbits (Ocular tissue concentration after 1 hr)
Another series in a line: physchem. The following applies: pH 7.4 buffer.
Series [17] deals with T1, Carbonic anhydrase 1. The experiment in a line: Tested for inhibition of human (cloned) isoenzyme carbonic anhydrase 1.
Series [18] deals with Oryctolagus cuniculus. Nature of the series: Tested for in vivo IOP-lowering of glaucomatous rabbits after topical administration at the specified interval( 60 min) at pH 6.5. It is filed as functional.
The species entered for series [19] is Oryctolagus cuniculus. The source holds these as a separate data set.
Description: Tested for in vivo IOP-lowering of normotensive albino rabbits after topical administration at the specified interval (90 min) at pH 6.5
The species entered for series [20] is Oryctolagus cuniculus. This is another data set of the same source.
Description: Tested for in vivo IOP-lowering of normotensive albino rabbits after topical administration at the specified interval (60 min) at pH 6.5
Series [21] has as its system Oryctolagus cuniculus. The experiment in a line: Tested for in vivo IOP-lowering of glaucomatous rabbits after topical administration at the specified interval( 90 min) at pH 6.5. It is filed as functional.
The test system of series [22] is Oryctolagus cuniculus. The experiment in a line: Tested for in vivo IOP-lowering of glaucomatous rabbits after topical administration at the specified interval( 30 min) at pH 6.5. It is filed as functional.
For series [23], the species on record is Oryctolagus cuniculus. This is another data set of the same source.
Description: Tested for in vivo IOP-lowering of normotensive albino rabbits after topical administration at the specified interval (30 min) at pH 6.5
In series [24] the target is T1, Carbonic anhydrase 1. Nature of the series: 99 Tested for inhibition of human (cloned) isozyme Carbonic anhydrase I.

T1 sequence (P00915 whole entry): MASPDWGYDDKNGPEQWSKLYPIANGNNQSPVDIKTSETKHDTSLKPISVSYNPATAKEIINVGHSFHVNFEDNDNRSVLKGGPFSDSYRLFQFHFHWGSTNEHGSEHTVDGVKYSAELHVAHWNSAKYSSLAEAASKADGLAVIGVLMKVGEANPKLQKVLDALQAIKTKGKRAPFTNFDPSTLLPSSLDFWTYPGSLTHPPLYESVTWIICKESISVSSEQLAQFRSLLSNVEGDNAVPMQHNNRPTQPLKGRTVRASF
Description for Carbonic anhydrase 4: Inhibition of bovine carbonic anhydrase IV (CA4) from bovine lung microsomes
Description for physchem: Tested for solubility in pH 7.4 buffer, at 25 Degree C

Consider `NS(=O)(=O)c1ccccc1NC(=O)c1c(F)c(F)c(F)c(F)c1F`, for which the values for the Ki at Carbonic anhydrase 1 [1] and on Carbonic anhydrase 4 were 1560 nM and 810 nM, respectively.

`NS(=O)(=O)c1cccc(NC(=O)c2c(F)c(F)c(F)c(F)c2F)c1`: the Ki on Carbonic anhydrase 1 [1] worked out at 1400 nM; on Carbonic anhydrase 4 it was 650 nM.

Take `NS(=O)(=O)c1nc2ccc(NS(=O)(=O)c3c(F)c(F)c(F)c(F)c3F)cc2s1`: the Ki is 41 nM on Carbonic anhydrase 1 [2] and 5 nM on Carbonic anhydrase 4. Moreover, the “Delta IOP” value in the series filed under Oryctolagus cuniculus [3] was 8 mmHg; in the series filed under Oryctolagus cuniculus [4] it was 6.6 mmHg; in the series filed under Oryctolagus cuniculus [5], 3 mmHg.

For the molecule `NS(=O)(=O)c1nnc(NS(=O)(=O)c2ccc(NS(=O)(=O)C(F)(F)C(F)(F)C(F)(F)C(F)(F)C(F)(F)C(F)(F)C(F)(F)C(F)(F)F)cc2)s1`, the Ki on Carbonic anhydrase 1 [2] stood at 800 nM; on Carbonic anhydrase 4, 21 nM. Besides, the figures for the Kin in the series listed under Oryctolagus cuniculus [6] and in the series listed under Oryctolagus cuniculus [7] were 4.1 h⁻¹ and 7.5 h⁻¹, respectively. Moreover, the logD in series [8] was found to be 1.689.

Turning to `NS(=O)(=O)c1nnc(NS(=O)(=O)c2c(F)c(F)c(F)c(F)c2F)s1`, the Ki at Carbonic anhydrase 1 [2] came out at 210 nM; at Carbonic anhydrase 4, 6 nM. Further, the Drug concentration in the series filed under Oryctolagus cuniculus [9] was found to be 12.5 µM; in the series filed under Oryctolagus cuniculus [10], 324 µM; in the series filed under Oryctolagus cuniculus [12], 176 µM; in the series listed under Oryctolagus cuniculus [14] it was 69 µM; in the series filed under Oryctolagus cuniculus [15], 42 µM; in the series filed under Oryctolagus cuniculus [16] it was 45 µM. For the same molecule, the figures for the Kin in the series listed under Oryctolagus cuniculus [6] and in the series filed under Oryctolagus cuniculus [7] were 4500 h⁻¹ and 8700 h⁻¹, respectively. In series [11], this molecule yielded a logD of 2.113. This molecule also showed a solubility in series [13] of 62 mM (≈ 25.4 mg/mL).

Consider `NS(=O)(=O)c1nnc(NC(=O)CCNS(=O)(=O)c2c(F)c(F)c(F)c(F)c2F)s1`, for which the Ki was found to be 200 nM at Carbonic anhydrase 1 [2] and 9 nM on Carbonic anhydrase 4. For the same molecule, the “Delta IOP” value in the series listed under Oryctolagus cuniculus [3] is listed as 7.5 mmHg; in the series listed under Oryctolagus cuniculus [4], 6.1 mmHg; in the series listed under Oryctolagus cuniculus [5] it was 4 mmHg.

As to `NS(=O)(=O)c1nnc(NC(=O)c2c(F)c(F)c(F)c(F)c2F)s1`, the Ki on Carbonic anhydrase 1 [2] is 250 nM; at Carbonic anhydrase 4, 10 nM. Moreover, the Kin in the series filed under Oryctolagus cuniculus [6] was 4800 h⁻¹; in the series listed under Oryctolagus cuniculus [7], 10100 h⁻¹. Also, the “Delta IOP” value in the series filed under Oryctolagus cuniculus [3] stood at 7.3 mmHg; in the series filed under Oryctolagus cuniculus [4], 6.5 mmHg; in the series filed under Oryctolagus cuniculus [5], 2.2 mmHg. The amount in solution in the series “physchem” (solubility) came to 43 mM (≈ 16.1 mg/mL). Besides, the logD in [8] was 2.245.

With `NS(=O)(=O)c1nnc(NS(=O)(=O)c2ccc(NC(=O)C(F)(F)C(F)(F)C(F)(F)C(F)(F)C(F)(F)C(F)(F)C(F)(F)C(F)(F)F)cc2)s1`, the Ki at Carbonic anhydrase 1 [2] came to 600 nM; at Carbonic anhydrase 4, 13 nM. The Kin was found to be 3.2 h⁻¹ in the series listed under Oryctolagus cuniculus [6] and 8 h⁻¹ in the series listed under Oryctolagus cuniculus [7]. In series [8], this molecule returned a logD of 1.436.

For `NS(=O)(=O)c1ccc(NNS(=O)(=O)C(F)(F)C(F)(F)C(F)(F)C(F)(F)C(F)(F)C(F)(F)C(F)(F)C(F)(F)F)cc1`, the Ki on Carbonic anhydrase 4 turned out to be 860 nM; at Carbonic anhydrase 1 [17], 1680 nM.

For `Cn1nc(S(N)(=O)=O)sc1=NS(=O)(=O)c1c(F)c(F)c(F)c(F)c1F`, the figures for the Ki on Carbonic anhydrase 1 [2] and at Carbonic anhydrase 4 were 250 nM and 9 nM, respectively. Moreover, the Drug concentration came to 7.1 µM in the series filed under Oryctolagus cuniculus [9]; 296 µM in the series listed under Oryctolagus cuniculus [10]; 150 µM in the series listed under Oryctolagus cuniculus [12]; 36 µM in the series listed under Oryctolagus cuniculus [14]; 39 µM in the series listed under Oryctolagus cuniculus [15]; 38 µM in the series filed under Oryctolagus cuniculus [16]. Besides, the values for the Kin in the series listed under Oryctolagus cuniculus [6] and in the series filed under Oryctolagus cuniculus [7] were 4900 h⁻¹ and 8800 h⁻¹, respectively. The “Delta IOP” value is given as 14.2 mmHg in the series with Oryctolagus cuniculus [18]; 9.1 mmHg in the series filed under Oryctolagus cuniculus [19]; 11.3 mmHg in the series listed under Oryctolagus cuniculus [20]; 16.9 mmHg with Oryctolagus cuniculus [21]; 7.1 mmHg in the series on Oryctolagus cuniculus [22]; 4.7 mmHg in the series filed under Oryctolagus cuniculus [23]. Also, the logD in series [11] stood at 2.347. In addition, in series [13], the concentration in solution (solubility) was 66 mM (≈ 28 mg/mL).

With `Cn1nc(S(N)(=O)=O)sc1=NS(=O)(=O)C(F)(F)F`, the Ki on Carbonic anhydrase 1 [2] came out at 2000 nM; on Carbonic anhydrase 4, 32 nM. The Kin in the series listed under Oryctolagus cuniculus [6] is 3100 h⁻¹; in the series filed under Oryctolagus cuniculus [7] it was 4800 h⁻¹. Moreover, the results for the “Delta IOP” value in the series filed under Oryctolagus cuniculus [19], in the series listed under Oryctolagus cuniculus [20] and in the series filed under Oryctolagus cuniculus [23] were 4.9 mmHg, 7.3 mmHg and 3.2 mmHg, respectively. Also, the concentration in solution in the series “physchem” (solubility) was 69 mM (≈ 22.5 mg/mL). The logD in [8] is on record as 1.012.

Take `NS(=O)(=O)c1nnc(NS(=O)(=O)C(F)(F)C(F)(F)C(F)(F)C(F)(F)F)s1`: the Ki at Carbonic anhydrase 1 [2] came out at 360 nM; at Carbonic anhydrase 4 it was 9 nM. For the same molecule, the Kin came out at 4300 h⁻¹ in the series listed under Oryctolagus cuniculus [6] and 7000 h⁻¹ in the series listed under Oryctolagus cuniculus [7]. In addition, the “Delta IOP” value was determined as 8.5 mmHg in the series filed under Oryctolagus cuniculus [3], 5.6 mmHg in the series listed under Oryctolagus cuniculus [4] and 2.8 mmHg in the series listed under Oryctolagus cuniculus [5]. The molecule also registered a solubility in “physchem” of 50 mM (≈ 23.1 mg/mL). In [8], this molecule returned a logD of 1.525.

For the molecule `NS(=O)(=O)c1ccc(NC(=O)c2c(F)c(F)c(F)c(F)c2F)cc1`, the figures for the Ki on Carbonic anhydrase 1 [24] and at Carbonic anhydrase 4 were 950 nM and 600 nM, respectively.

Consider `CC(=O)/N=c1/sc(S(N)(=O)=O)nn1C` [METHAZOLAMIDE], for which the Kin in the series listed under Oryctolagus cuniculus [6] was 1900 h⁻¹; in the series listed under Oryctolagus cuniculus [7] it was 13000 h⁻¹. The molecule also yielded a logD in [11] of 0.06.

Regarding `NS(=O)(=O)c1ccc(NNS(=O)(=O)C(F)(F)F)cc1`, the results for the inhibitory constant (Ki) at Carbonic anhydrase 1 [2] and at Carbonic anhydrase 4 were 156000 nM and 60800 nM, respectively.

For `Cn1nc(S(N)(=O)=O)s/c1=N/S(=O)(=O)c1ccc(NS(=O)(=O)C(F)(F)F)cc1`, the Ki was found to be 1000 nM on Carbonic anhydrase 1 [2] and 33 nM on Carbonic anhydrase 4.

For the molecule `NS(=O)(=O)c1cc(S(N)(=O)=O)c(NC(=O)c2c(F)c(F)c(F)c(F)c2F)cc1Cl`, the Ki on Carbonic anhydrase 1 [2] is 750 nM; at Carbonic anhydrase 4 it was 54 nM.

A word on the Ki: it is a measure of affinity in units of concentration, obtained from inhibition or displacement. Low readings indicate higher affinity, high ones lower affinity. Usually logD stands for the decadic logarithm of the distribution of all forms, ionised or not, between an organic phase and buffer at a given pH. For orientation: solubility means how much of the substance goes into solution per volume. A lower solubility goes with a poorly soluble substance.
